Source: PubChem BioAssay AID2060486 (Molecular Pharmacology Branch, DTP, NCI, 2025)

System: IGROV1 complex spheroids (HUVEC, MSC), viability % test/control
Experiment: Anticancer human tumor IGROV1 cell line growth inhibition [GQUAD];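 further: spheroids exposed to compounds for 7 days before readout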;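 on viability, T/C: 100% = DMSO vehicle control viability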
Conditions: for IC50: curve of first compound; for viability, T/C: stronger effect = lower value
Procedure, shortened: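 Multi-cell-type spheroids of tumor cells with HUVEC and mesenchymal stem cells, treated with drug combinations. Concentrations descend in half-log steps from near clinical Cmax, or from 10 microM where Cmax is unknown; viability read-out.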

[1] = second compound 0.0316 µM, first compound 0.0316 µM
[2] = second compound 0.0316 µM, first compound 0.1 µM
[3] = second compound 0.0316 µM, first compound 0.316 µM
[4] = second compound 0.0316 µM, first compound 1 µM
[5] = second compound 0.0316 µM, first compound 3.16 µM
[6] = second compound 0.0316 µM, first compound 10 µM
[7] = second compound 0.1 µM, first compound 0.0316 µM
[8] = second compound 0.1 µM, first compound 0.1 µM
[9] = second compound 0.1 µM, first compound 0.316 µM
[10] = second compound 0.1 µM, first compound 1 µM
[11] = second compound 0.1 µM, first compound 3.16 µM
[12] = second compound 0.1 µM, first compound 10 µM
[13] = second compound 0.316 µM, first compound 0.0316 µM
[14] = second compound 0.316 µM, first compound 0.1 µM
[15] = second compound 0.316 µM, first compound 0.316 µM
[16] = second compound 0.316 µM, first compound 1 µM
[17] = second compound 0.316 µM, first compound 3.16 µM
[18] = second compound 0.316 µM, first compound 10 µM
[19] = second compound 1 µM, first compound 0.0316 µM
[20] = second compound 1 µM, first compound 0.1 µM
[21] = second compound 1 µM, first compound 0.316 µM
[22] = second compound 1 µM, first compound 1 µM
[23] = second compound 1 µM, first compound 3.16 µM
[24] = second compound 1 µM, first compound 10 µM
[25] = second compound 3.16 µM, first compound 0.0316 µM
[26] = second compound 3.16 µM, first compound 0.1 µM
[27] = second compound 3.16 µM, first compound 0.316 µM
[28] = second compound 3.16 µM, first compound 1 µM
[29] = second compound 3.16 µM, first compound 3.16 µM
[30] = second compound 3.16 µM, first compound 10 µM
[31] = second compound 10 µM, first compound 0.0316 µM
[32] = second compound 10 µM, first compound 0.1 µM
[33] = second compound 10 µM, first compound 0.316 µM
[34] = second compound 10 µM, first compound 1 µM
[35] = second compound 10 µM, first compound 3.16 µM
[36] = second compound 10 µM, first compound 10 µM

Compound CC(=O)O[C@H]1C(=O)[C@@]2(C)[C@H]([C@H](OC(=O)c3ccccc3)[C@]3(O)C[C@H](OC(=O)[C@H](O)[C@@H](NC(=O)c4ccccc4)c4ccccc4)C(C)=C1C3(C)C)[C@]1(OC(C)=O)CO[C@@H]1C[C@@H]2O + Cc1[nH]c2ccc(F)cc2c1-c1nc2c3cccnc3c3ncccc3c2[nH]1 has an IC50 (second compound 0.0316 µM) of less than 31.6 nM, an IC50 (second compound 0.1 µM) of less than 31.6 nM and an IC50 (second compound 0.316 µM) of less than 31.6 nM. It also gave an IC50 (second compound 1 µM) of less than 31.6 nM, an IC50 (second compound 3.16 µM) of less than 31.6 nM and an IC50 (second compound 10 µM) of less than 31.6 nM. For the same compound, the viability, T/C [1] was 8.39%, the viability, T/C [2] was 5.36% and the viability, T/C [3] was 5.66%. For the same compound, the viability, T/C [4] was 4.68%, the viability, T/C [5] was 4.86% and the viability, T/C [6] was 4.6%. The viability, T/C [7] was 7.76%, the viability, T/C [8] was 6.43% and the viability, T/C [9] was 6.02%. It also gave a viability, T/C [10] of 4.48%, a viability, T/C [11] of 4.3% and a viability, T/C [12] of 4.13%. It also gave a viability, T/C [13] of 4.55%, a viability, T/C [14] of 3.65% and a viability, T/C [15] of 3.47%. It also gave a viability, T/C [16] of 3.01%, a viability, T/C [17] of 2.72% and a viability, T/C [18] of 2.99%. The viability, T/C [19] was 2.66%, the viability, T/C [20] was 2.5% and the viability, T/C [21] was 2.5%. The viability, T/C [22] was 2.49%, the viability, T/C [23] was 2.3% and the viability, T/C [24] was 2.06%. For the same compound, the viability, T/C [25] was 2.72%, the viability, T/C [26] was 2.23% and the viability, T/C [27] was 2.86%. It also gave a viability, T/C [28] of 2.81%, a viability, T/C [29] of 2.28% and a viability, T/C [30] of 2.17%. The viability, T/C [31] was 1.84%, the viability, T/C [32] was 2.38% and the viability, T/C [33] was 2.16%. The viability, T/C [34] was 2.22%, the viability, T/C [35] was 2.3% and the viability, T/C [36] was 2.4%.

CC[C@@]1(O)C(=O)OCc2c1cc1n(c2=O)Cc2cc3c(CN(C)C)c(O)ccc3nc2-1 + Cc1[nH]c2ccc(F)cc2c1-c1nc2c3cccnc3c3ncccc3c2[nH]1 was tested, and the IC50 (second compound 0.0316 µM) was 26.3 nM, the IC50 (second compound 0.1 µM) was 23.1 nM and the IC50 (second compound 0.316 µM) was 9.14 nM. It also gave an IC50 (second compound 1 µM) of less than 0.999 nM, an IC50 (second compound 3.16 µM) of less than 0.999 nM and an IC50 (second compound 10 µM) of less than 0.999 nM. For the same compound, the viability, T/C (second compound 0.0316 µM, first compound 0.000999 µM) was 99.8%, the viability, T/C (second compound 0.0316 µM, first compound 0.00316 µM) was 73.2% and the viability, T/C (second compound 0.0316 µM, first compound 0.00999 µM) was 92.3%. For the same compound, the viability, T/C [1] was 42.7%, the viability, T/C (second compound 0.0316 µM, first compound 0.0999 µM) was 10.9% and the viability, T/C [3] was 10.8%. It also gave a viability, T/C (second compound 0.1 µM, first compound 0.000999 µM) of 96.9%, a viability, T/C (second compound 0.1 µM, first compound 0.00316 µM) of 77.7% and a viability, T/C (second compound 0.1 µM, first compound 0.00999 µM) of 94.9%. It also gave a viability, T/C [7] of 35%, a viability, T/C (second compound 0.1 µM, first compound 0.0999 µM) of 10.7% and a viability, T/C [9] of 11.1%. It also gave a viability, T/C (second compound 0.316 µM, first compound 0.000999 µM) of 93.1%, a viability, T/C (second compound 0.316 µM, first compound 0.00316 µM) of 58.5% and a viability, T/C (second compound 0.316 µM, first compound 0.00999 µM) of 56.9%. It also gave a viability, T/C [13] of 34.6%, a viability, T/C (second compound 0.316 µM, first compound 0.0999 µM) of 9.45% and a viability, T/C [15] of 10.2%. For the same compound, the viability, T/C (second compound 1 µM, first compound 0.000999 µM) was 4.53%, the viability, T/C (second compound 1 µM, first compound 0.00316 µM) was 5.2% and the viability, T/C (second compound 1 µM, first compound 0.00999 µM) was 3.92%. The viability, T/C [19] was 4.65%, the viability, T/C (second compound 1 µM, first compound 0.0999 µM) was 5.01% and the viability, T/C [21] was 4.15%. It also gave a viability, T/C (second compound 3.16 µM, first compound 0.000999 µM) of 4.32%, a viability, T/C (second compound 3.16 µM, first compound 0.00316 µM) of 4.59% and a viability, T/C (second compound 3.16 µM, first compound 0.00999 µM) of 4.67%. The viability, T/C [25] was 4.52%, the viability, T/C (second compound 3.16 µM, first compound 0.0999 µM) was 4.31% and the viability, T/C [27] was 2.77%. It also gave a viability, T/C (second compound 10 µM, first compound 0.000999 µM) of 4.73%, a viability, T/C (second compound 10 µM, first compound 0.00316 µM) of 3.46% and a viability, T/C (second compound 10 µM, first compound 0.00999 µM) of 4.25%. The viability, T/C [31] was 4.75%, the viability, T/C (second compound 10 µM, first compound 0.0999 µM) was 4.66% and the viability, T/C [33] was 3.29%.

In the case of COc1cc(C2c3cc4c(cc3C(OC3OC5COC(C)OC5C(O)C3O)C3COC(=O)C23)OCO4)cc(OC)c1O (stereo unspecified) + Cc1[nH]c2ccc(F)cc2c1-c1nc2c3cccnc3c3ncccc3c2[nH]1, the IC50 (second compound 0.0316 µM) is reported as 99.2 nM, the IC50 (second compound 0.1 µM) is reported as 110 nM and the IC50 (second compound 0.316 µM) is reported as 75.3 nM. For the same compound, the IC50 (second compound 1 µM) was less than 31.6 nM, the IC50 (second compound 3.16 µM) was less than 31.6 nM and the IC50 (second compound 10 µM) was less than 31.6 nM. For the same compound, the viability, T/C [1] was 87.7%, the viability, T/C [2] was 49.2% and the viability, T/C [3] was 26.8%. It also gave a viability, T/C [4] of 9.94%, a viability, T/C [5] of 10.6% and a viability, T/C [6] of 5.84%. For the same compound, the viability, T/C [7] was 89.3%, the viability, T/C [8] was 52.3% and the viability, T/C [9] was 25.4%. It also gave a viability, T/C [10] of 12%, a viability, T/C [11] of 9.69% and a viability, T/C [12] of 6.24%. The viability, T/C [13] was 68.3%, the viability, T/C [14] was 44% and the viability, T/C [15] was 23.7%. The viability, T/C [16] was 11.6%, the viability, T/C [17] was 7.51% and the viability, T/C [18] was 4.85%. For the same compound, the viability, T/C [19] was 4.67%, the viability, T/C [20] was 4.98% and the viability, T/C [21] was 4.59%. For the same compound, the viability, T/C [22] was 5.09%, the viability, T/C [23] was 4.85% and the viability, T/C [24] was 3.15%. The viability, T/C [25] was 4.03%, the viability, T/C [26] was 5.21% and the viability, T/C [27] was 3.82%. The viability, T/C [28] was 5.26%, the viability, T/C [29] was 4.55% and the viability, T/C [30] was 3.18%. It also gave a viability, T/C [31] of 4.92%, a viability, T/C [32] of 4.45% and a viability, T/C [33] of 4.88%. It also gave a viability, T/C [34] of 4.78%, a viability, T/C [35] of 4.32% and a viability, T/C [36] of 4.34%.
